Measurements as given in US20130303564A1, “METHOD FOR TREATING A NEURODEGENERATIVE DISORDER” (RUSH UNIVERSITY MEDICAL CENTER, priority 2012, published 2013).

Experiments:
NF-κB = assay: Transcriptional activity of NF-κB (PBIIX-Luc reporter) in BV-2 microglial cells; type: cell-based, mouse; conditions: co-incubated with NaPB 6 h
Method: Transcriptional activity of NF-κB: Transcriptional activity of NF-κB was assayed. […] After 24 h of transfection, […], and firefly and Renilla luciferase activities were recorded in a TD-20/20 Luminometer (Turner Designs, Sunnyvale, Calif.) by analyzing total cell extract according to standard instructions provided in the Dual Luciferase Kit (Promega), Relative luciferase activity of cell extracts was typically represented as (firefly luciferase value/Renilta luciferase value)×10^−3.

BV-2 microglial cells = assay: Superoxide production in microglial cells; type: cell-based, mouse; conditions: co-incubated with NaPB 6 h, then LPS 10 min
Excerpt: Results represent three independent experiments.
Superoxide measurements: Superoxide production was detected by LumiMax™ Superoxide Anion Detection Kit (Stratagene) as described by us (30).

cholesterol = assay: Serum cholesterol in male C57/BL6 mice; type: in vivo, mouse; conditions: 1 mg/kg body wt/d via gavage, 7 d
Method: Mice (6-8 wk old) were treated with NaPB (200 mg/kg body wt/d) and pravastatin (1 mg/kg body wt/d) separately via gavage for 7 d followed by quantification of cholesterol in serum using a simple fluorometric method.
Intermediates of the mevalonate pathway play a role in the expression of iNOS and proinflammatory cytokines in glial cells. End product of the mevalonate pathway is cholesterol and therefore, we investigated if NaPB had any effect on the level of cholesterol in vivo in mice.
Assay of cholesterol in serum: Total cholesterol was quantified irr serum by using an Amplex Red Cholesterol Assay kit from Invitrogen. Briefly, cholesterol was oxidized by cholesterol oxidase to yield H2O2, which then reacted with 10-acetyl-3,7 dihydroxyphenoxazine (Amplex Red). In the presence of horseradish peroxidase (HRP), this Amplex Red:H2O2 complex produced highly fluorescent resorufin, which was detected by fluorometry.

primary mouse microglia = assay: LPS-induced NO (nitrite) production in primary mouse microglia; type: cell-based; conditions: other HDAC inhibitors, different concentrations, 6 h preincubation, LPS 24 h
Method: Primary mouse microglia were treated with different concentrations of NaPB for 6 h followed by stimulation with LPS under serum-free condition. After 24 h of stimulation, concentrations of nitrite were measured in supernatants (A) and the level of iNOS protein was monitored in cells by Western blot (B). […] After 5 h of stimulation, the expression of iNOS mRNA was monitored by semi-quantitative RT-PCR (C). Cells preinctibated with different concentration of trichostatin A (TSA) and sodium butyrate (NaBu) for 6 h were stimulated with LPS for 24 h under serum-free condition followed by monitoring the level of nitrite in supernatants (p). […] Primary human astroglia isolated from fetal brain tissues were treated with different concentrations of NaPB for 6 h followed by stimulation with IL-1β under serum-free condition. After 48 h of stimulation, concentrations of nitrite (E) were measured in supernatants. Human astroglia plated at 70-80% confluence in 12-well plates were co-transfected with 0.25 μg of phiNOS(7.2)Luc and 12.5 ng of pRL-TK using the Lipofectamine-Plus (Invitrogen). Twenty-four h after transfection, cells received NaPB. After 6 h of incubation, cells were stimulated with IL-1β (20 ng/ml) for 12 h. Firefly (ff-Luc) and Renilla (r-Luc) luciferase activities were obtained by analyzing the total cell extract (F).
Activated microglia and astroglia are known to produce excessive amount of NO having the potential of damaging neurons in neurodegenerative disorders. We investigated the effect of NaPB on the expression of iNOS in microglia. LPS is a prototype inducer of various proinflammatory molecules in different cell types including mouse microglia. Therefore, primary mouse microglia preincubated with different doses of NaPB for 6 h were stimulated with LPS under serum-free condition. […] We used trichostatin A (TSA) and sodium butyrate (NaBu) for this purpose.
Isolation of Mouse Microglia: Microglia were isolated from mixed glial cultures. Briefly, on day 7-9, the mixed glial cultures were washed three times with Dulbecco's modified Eagle's medium/F-12 and subjected to shaking at 240 rpm for 2 h at 37° C. on a rotary shaker. The floating cells were washed and seeded on to plastic tissue culture flasks and incubated at 37° C. for 1 h. The attached cells were seeded onto new plates for further studies. […] Mouse BV-2 microglial cells (kind gift from Virginia Bocchini of Universityof Perugia) were also maintained and induced as indicated above.

SMILES: CC(O)(CCO)CC(=O)O (centres unmarked) [mevalonate]
- effect on NaPB-mediated inhibition of NF-κB activation (NF-κB): abrogated the inhibitory effect of NaPB
- effect on NaPB-mediated inhibition of superoxide production (BV-2 microglial cells): abolished the inhibitory effect of NaPB

SMILES: CC[C@H](C)C(=O)O[C@H]1C[C@H](O)C=C2C=C[C@H](C)[C@H](CC[C@@H](O)C[C@@H](O)CC(=O)O)[C@H]21 [pravastatin]
- reduction of the level of cholesterol in serum (cholesterol): ~29%

SMILES: CC(/C=C/C(=O)NO)=C\[C@@H](C)C(=O)c1ccc(N(C)C)cc1 [TSA, trichostatin A]
- effect on LPS-induced production of NO (primary mouse microglia): attenuated

SMILES: CC(C)=CCC/C(C)=C/CC/C(C)=C/CC/C(C)=C/COP(=O)(O)OP(=O)(O)O [GGPP, geranylgeranyl pyrophosphate]
- effect on NaPB-mediated inhibition of NF-κB activation (NF-κB): abrogated the inhibitory effect of NaPB
- effect on NaPB-mediated inhibition of superoxide production (BV-2 microglial cells): abolished the inhibitory effect of NaPB

SMILES: COC1=C(OC)C(=O)C(C/C=C(\C)CC/C=C(\C)CC/C=C(\C)CC/C=C(\C)CC/C=C(\C)CC/C=C(\C)CC/C=C(\C)CC/C=C(\C)CC/C=C(\C)CCC=C(C)C)=C(C)C1=O [coenzyme Q]
- effect on NaPB-mediated inhibition of NF-κB activation (NF-κB): had no effect
- effect on NaPB-mediated inhibition of superoxide production (BV-2 microglial cells): had no effect

SMILES: CC(C)=CCC/C(C)=C/CC/C(C)=C/COP(=O)(O)OP(=O)(O)O [FPP, farnesyl pyrophosphate]
- effect on NaPB-mediated inhibition of NF-κB activation (NF-κB): abrogated the inhibitory effect of NaPB

SMILES: CCCC(=O)[O-].[Na+] [NaBu, sodium butyrate]
- effect on LPS-induced production of NO (primary mouse microglia): stimulated

SMILES: CC(C)CCC[C@@H](C)[C@H]1CC[C@H]2[C@@H]3CC=C4C[C@@H](O)CC[C@]4(C)[C@H]3CC[C@]12C [cholesterol]
- effect on NaPB-mediated inhibition of NF-κB activation (NF-κB): had no effect
- effect on NaPB-mediated inhibition of superoxide production (BV-2 microglial cells): had no effect

SMILES: CC(C)(CO[P@@](=O)(O)O[P@@](=O)(O)OC[C@H]1O[C@@H](n2cnc3c(N)ncnc32)[C@H](O)[C@@H]1OP(=O)(O)O)[C@@H](O)C(=O)NCCC(=O)NCCSC(=O)C[C@@](C)(O)CC(=O)O [HMG-CoA]
- effect on NaPB-mediated inhibition of NF-κB activation (NF-κB): abrogated the inhibitory effect of NaPB
- effect on NaPB-mediated inhibition of superoxide production (BV-2 microglial cells): abolished the inhibitory effect of NaPB
